# Test results published in patent US20060165823A1, “Topical delivery agents and methods for making and using therm” (priority 2003, published 2006).
# Tested on: hair follicles and sebaceous glands of the dorsal skin
# Experiment: Delivery of Nile Red fluorescent dye into hair follicles and sebaceous glands by delivery agents
# Set-up: species or system Sprague Dawley rat; Fluorescence intensity: key to the marks not given beside the values
# Conditions: rat, in vivo
# Text: Mixtures of Nile Red fluorescent dye, were from Sigma Chemical Co., St. […] All mixtures were filtered through a 0.2 micron Millipore filter, available from Millipore Corp., Bedford, Mass., to remove any undissolved Nile Red dye. […] Before the application of formulations, the hair of the rats was gently clipped with an electric clipper on their dorsal areas. […] The amount of Nile Red delivered is evidenced by the intensity of the orange-red fluorescence depicted in the photomicrographs. […] Orange-red fluorescence due to Nile Red dye on the skin surface (stratum corneum) was not evaluated.
Fluorescence intensity,Compound,Penetration of the skin and distribution in the pilosebaceous unit
+++,"C[S+](C)[O-] [DMSO, Dimethyl Sulfoxide, reference compound]",–
++++,Jojoba Oil,can penetrate the skin through the opening of the hair follicle and distribute itself throughout the hair shaft and sebaceous gland
